“And” between values parts separate entries of the source, which are not always exact repeats. Equal entries are not always repeated.
Columns and labels:
HIV integrase = HIV integrase (Human immunodeficiency virus type 1 group M subtype B, UniProt P04585); assay: integrase inhibition assay (microtiter plate, substrate DNA / target DNA); format: biochemical; details: integrase 30 pmol, incubated at 30° C. for 1 hour, OD at 405 nm; concentration at percent inhibition 50%; read-out: MIA, IC50 (ug/ml) (converted)
Procedure: The inhibitory activities against integrase of the presnt compounds were determined by the assay described below.
(1) Preparation of DNA Solutions
Substrate DNA and target DNA synthesized by Amersham Pharmacia Biotech, which sequences were indicated below, were dissolved in KTE buffer (composition: 100 mM KCl, 1 mM EDTA, 10 mM Tris-HCl (pH 7.6)) at a concentration of 2 pmol/μl and 5 pmol/μl, respectively. The DNA solutions were heated and then slowly cooled so that they were annealed with each complement.
(Sequence of Substrate DNA)
(2) Calculations of the percent inhibitions (IC50 values of test compounds)
Streptavidin, obtained from Vector Laboratories, was dissolved in 0.1 M carbonate buffer (composition: 90 mM Na2CO3, 10 mM NaHCO3) at a concentration of 40 μg/ml. After coating each well of microtiter plates (obtained from NUNC) with 50 μl of the above solution at 4° C. over night, each well was washed twice with PBS (composition: […], 0.27 mM KCl, 0.43 mM Na2HPO4, 0.14 mM KH2PO4) and blocked with 300 μl of 1% skim milk in PBS for 30 min. Additionally, each well was washed twice with PBS and added with 50 μl of the substrate DNA solution (2 pmol/μl). The microtiter plates were kept at room temperature for 30 min. Then, each well was washed twice with PBS and once with H2O.
Subsequently, to the each well prepared above were added 45 μl of the reaction buffer prepared from 12 μl of the buffer (composition: 150 mM MOPS (pH 7.2), 75 mM MnCl2, 50 mM 2-mercaptoethanol, 25% glycerol, 500 μg/ml bovine serum albumin-fraction V), 1 μl of target DNA (5 pmol/μ), and 32 μl of the distilled water. Additionally, 6 μl of either a test compound in DMSO or DMSO for positive control (PC) was mixed with the above reaction buffer, then 9 μl of an integrase solution (30 pmol) was added thereto and the mixture was mixed well. To the well of negative control (NC) was added 9 μl of the integrase dilution buffer (composition: 20 mM MOPS (pH7.2), 400 mM potassium glutamate, 1 mM EDTA, 0.1% NP-40, 20% glycerol, 1 mM DTT, 4 M urea).
The microtiter plates were incubated at 30° C. for 1 hour. The reaction solution was removed and each well was washed twice with PBS. Subsequently, each well of the microtiter plates was filled with 100 μl of anti-digoxigenin antibody labeled with alkaline phosphatase (Sheep Fab fragment: obtained from Boehringer) and incubated at 30° C. for 1 hour. Then, each well was washed twice with 0.05% Tween20 in PBS and once with PBS. Next, 150 μl of the Alkaline phosphatase reaction buffer (composition: 10 mM p-Nitrophenylphosphate (obtained from Vector Laboratories), 5 mM MgCl2, 100 mM NaCl, 100 mM Tris-HCl (pH 9.5)) was added to each well. The microtiter plates were incubated at 30° C. for 2 hours and the reaction was terminated by the addition of 50 μl of 1 N NaOH solution. The optical density (OD) at 405 nm of each well was measured and the percent inhibition was determined by the following expression. The percent inhibition (%)=100[1−{(C abs.−NC abs.)/(PC abs.−NC abs.)}]
C abs.; the OD of the well of the test compound
NC abs.: the OD of the negative control (NC)
PC abs.: the OD of the positive control (PC)
When the percent inhibition (%) is X % at a concentration of x μg/ml and the percent inhibition (%) is Y % at a concentration of y μg/ml, one of which is more than 50% and the other is less than 50%, IC50 can be determined by the following expression. IC50 (μg/ml)=x−{(X−50)(x−y)/(X−Y)}
Compound No. in the Table 1 is the same as compound No. of the above Examples.

COC(=O)c1cc(N)c2cc(Cc3ccc(F)cc3)cnc2c1O [Compound I-8, 5-Amino-3-(4-fluorobenzyl)-8-hydroxyquinoline-7-carboxylic acid methyl ester]
IC50 (HIV integrase): 398 nM | melting point: 114 to 115 °C

CCOC(=O)Nc1cc(C(=O)OC)c(O)c2ncc(Cc3ccc(F)cc3)cc12 [Compound I-9, 5-Ethoxycarbonylamino-3-(4-fluorobenzyl)-8-hydroxyquinoline-7-carboxylic acid methyl ester]
IC50 (HIV integrase): 703 nM | melting point: 205 to 206 °C

COC(=O)c1cc(NC(C)=O)c2cc(Cc3ccc(F)cc3)cnc2c1O [Compound I-10, 5-Acetylamino-3-(4-fluorobenzyl)-8-hydroxyquinoline-7-carboxylic acid methylester]
IC50 (HIV integrase): 1300 nM | melting point: 243 to 245 °C

COC(=O)c1cc(NS(C)(=O)=O)c2cc(Cc3ccc(F)cc3)cnc2c1O [Compound I-12, 3-(4-Fluorobenzyl)-8-hydroxy-5-methanesulfonylaminoquinoline-7-carboxylic acid methyl ester]
IC50 (HIV integrase): 1240 nM | melting point: 189.5 to 190.5 °C

COC(=O)c1cc(NC(C)C)c2cc(Cc3ccc(F)cc3)cnc2c1O [Compound I-14, 3-(4-Fluorobenzyl)-8-hydroxy-5-isopropylaminoquinoline-7-carboxylic acid methylester]
IC50 (HIV integrase): 1190 nM | melting point: 121 to 122 °C

COC(=O)c1cc(NC2CCCCC2)c2cc(Cc3ccc(F)cc3)cnc2c1O [Compound I-15, 5-Cyclohexylamino-3-(4-fluorobenzyl)-8-hydroxyquinoline-7-carboxylic acid methylester]
IC50 (HIV integrase): 1620 nM | melting point: 75.5 to 77.5 °C

COC(=O)c1cc(N(C)C)c2cc(Cc3ccc(F)cc3)cnc2c1O [Compound I-16, 5-Dimethylamino-3-(4-fluorobenzyl)-8-hydroxyquinoline-7-carboxylic acid methylester]
IC50 (HIV integrase): 451 nM | melting point: 62 to 63 °C

CN=C(Nc1cc(C(=O)OC)c(O)c2ncc(Cc3ccc(F)cc3)cc12)SC [Compound I-19, 5-(2,3-Dimethylisothioureido)-3-(4-fluorobenzyl)-8-hydroxyquinoline-7-carboxylic acid methylester]
IC50 (HIV integrase): 1040 nM | melting point: 198.5 to 199.5 °C

COC(=O)c1cc(C(=O)N2CCN(C)CC2)c2cc(Cc3ccc(F)cc3)cnc2c1O [Compound I-48, 3-(4-Fluorobenzyl)-8-hydroxy-5-(4-methyl-piperadine-1-carbonyl)quinoline-7-carboxylic acid methyl ester]
IC50 (HIV integrase): 800 nM | melting point: 184 to 185 °C

COC(=O)c1cc(C(=O)NCC(=O)N(C)C)c2cc(Cc3ccc(F)cc3)cnc2c1O [Compound I-64, 5-(Dimethylcarbamoylmethylcarbamoyl)-3-(4-fluorobenzyl)-8-hydroxyquinoline-7-carboxylic acid methyl ester]
IC50 (HIV integrase): 979 nM | melting point: 198 to 199 °C

COC(=O)c1cc(CO)c2cc(Cc3ccc(F)cc3)cnc2c1O [Compound I-117, 3-(4-Fluorobenzyl)-8-hydroxy-5-hydroxymethylquinoline-7-carboxylic acid methyl ester]
IC50 (HIV integrase): 208 nM | melting point: 142 to 143 °C

COC(=O)c1cc(-c2n[nH]c(C)n2)c2cc(Cc3ccc(F)cc3)cnc2c1O [Compound I-134, 3-(4-Fluorobenzyl)-8-hydroxy-5-(5-methyl-1H-[1,2,4]triazole-3-yl)quinoline-7-carboxylic acid methyl ester]
IC50 (HIV integrase): 357 nM | melting point: 200 to 202 °C and 195 to 196 °C

COCCC(=O)Nc1cc(C(=O)OC)c(O)c2ncc(Cc3ccc(F)cc3)cc12 [Compound I-182, 3-(4-Fluorobenzyl)-8-hydroxy-5-(3-methoxy-propionylamino)-quinoline-7-carboxylic acid methyl ester]
IC50 (HIV integrase): 461 nM | melting point: 190 to 192 °C

COC(=O)c1cc(N2CCOC2=O)c2cc(Cc3ccc(F)cc3)cnc2c1O [Compound I-183, 3-(4-Fluorobenzyl)-8-hydroxy-5-(2-oxo-oxazolidine-3-yl)-quinoline-7-carboxylic acid methyl ester]
IC50 (HIV integrase): 353 nM | melting point: 152 to 153 °C
